Data on eleven molecules can be found in paper PMC3227451, “Structure-based development of novel sirtuin inhibitors” (Aging (Albany NY), 2011).

Where two headings read alike, the source gives them in different places.

Holding throughout (type): biochemical
For one experiment, the target named is T1, Sirt2 (Homo sapiens, UniProt Q8IXJ6).
T1 sequence (Q8IXJ6 34-356): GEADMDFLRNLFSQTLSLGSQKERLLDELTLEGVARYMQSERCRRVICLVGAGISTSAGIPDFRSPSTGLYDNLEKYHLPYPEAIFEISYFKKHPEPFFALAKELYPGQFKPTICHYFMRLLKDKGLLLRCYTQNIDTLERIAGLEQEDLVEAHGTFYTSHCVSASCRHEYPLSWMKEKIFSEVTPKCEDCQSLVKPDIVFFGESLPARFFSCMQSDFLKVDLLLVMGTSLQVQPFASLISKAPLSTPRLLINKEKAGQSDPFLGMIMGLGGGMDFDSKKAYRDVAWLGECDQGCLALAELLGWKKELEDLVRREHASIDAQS
Nature of the experiment: Fluor-de-Lys peptide deacetylation assay, Sirt2. Here is the method:
The Sirt2 construct was expressed in E. coli Rosetta2 cells (Merck) in LB/Ampicillin/Chloramphenicol medium. Cells were grown at 37 °C, and expression induced at an OD600 of 0.6-0.8 for 4 h with 0.5 mM IPTG. Harvested cells were resuspended in buffer A (50 mM Tris/HCl pH 7.8, 200 mM NaCl, 2 mM DTT), disrupted with a Sonifier, and cell debris removed by 40 min centrifugation at 4 °C, 18000 rpm in a HFA22.50 rotor. The supernatant was supplemented with 10 mM imidazole and incubated with Ni-NTA resin for 1 h at 4 °C. […] The protein was concentrated in an amicon unit (Millipore, Billerica, USA) and digested over night at 4 °C with TEV-protease. The protease was removed from cleaved Sirt2 by incubation with Ni-NTA resin for 1 h at 4 °C. The protein was concentrated, 1:5 diluted with 50 mM Tris/HCl, pH 7.8, and applied to a HiTrap Q anion exchange column (GE Healthcare) equilibrated with 50 mM Tris/HCl, pH 7.8, 50 mM NaCl, 2 mM DTT and eluted with a gradient (20 column volumes) to 50 mM Tris/HCl, pH 7.8, 1 M NaCl, 2 mM DTT. Sirt2 was then applied to a Superdex200 gel filtration column (GE Healthcare) equilibrated in 20 mM Tris/HCl, pH 7.8, 150 mM NaCl, 2 mM DTT. The eluted protein was analyzed by SDS-PAGE, re-concentrated, and shock-frozen in liquid nitrogen for storage at -80 °C.
(§1) The commercial Fluor-de-Lys (FdL) assay kits 1 and 2 (Biomol, Plymouth Meeting, USA) were used to test the deacetylase activity of the four Sirtuins. In both kits the substrate derived from p53 is composed of three amino acids, the acetyl lysine and a C-terminally attached fluorophor. For Sirt2 and 3, FdL-2 peptide (QPK(acetyl-K)) was used, and FdL-1 peptide (RHK(acetyl-K)) for Sirt5 and Sirt6. All tests were done with 0.1 mM of the respective FdL peptide and 0.5 mM NAD^+ as substrates.
(§2) NCI compound stocks were prepared by dissolving them in DMSO at a concentration of 5 mM. The initial screens with all 40 compounds contained 5 μl Sirtuin solution (Sirt2/3 0.1 mg/ml stock concentration; Sirt5/6 1 mg/ml), 1 μl of compound stock (resulting in a 100 μM end concentration), 15 μl FdL substrate, and assay buffer (supplied in the assay kit) to a total volume of 50 μl. As control reactions, peptide with either the compound (without Sirtuin) or with Sirtuin and DMSO instead of compound were measured. After starting the reactions by adding the FdL substrate, assays were incubated for 30 min at 37 °C. Subsequently, 50 μl of a 10 mg/ml trypsin stock (“Developer solution”) were added and the reactions were incubated for 45 min at room temperature. Fluorescence values were measured in a fluorometric plate reader with excitation at 360 nm and read out at 485 nm. Values were then corrected with the control reaction (same compound, but without Sirtuin).
(§3) All measurements shown are averages of duplicates (screen) or triplicates (dose-response curves), and representatives of at least two independent replications. Error bars indicate standard deviations.

The target in another experiment is T2, Sirt3 (Homo sapiens, UniProt Q9NTG7).
T2 construct: Sirt3 residues 114-399; His-tag with linker comprising a TEV protease cleavage site (N); made in house; host or cells: E. coli
T2 sequence (Q9NTG7 114-399): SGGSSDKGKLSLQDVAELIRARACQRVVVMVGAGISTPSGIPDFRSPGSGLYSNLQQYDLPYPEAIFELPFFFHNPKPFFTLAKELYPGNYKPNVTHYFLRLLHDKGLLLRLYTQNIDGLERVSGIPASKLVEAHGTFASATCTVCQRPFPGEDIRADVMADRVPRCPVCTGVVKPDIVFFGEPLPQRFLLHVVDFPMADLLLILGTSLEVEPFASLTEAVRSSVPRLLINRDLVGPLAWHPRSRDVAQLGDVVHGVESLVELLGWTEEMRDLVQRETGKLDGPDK
Description: Fluor-de-Lys peptide deacetylation assay, Sirt3. On the procedure:
(§4) Sirt3 was expressed in E. coli and purified via Ni-NTA and size exclusion chromatography as described elsewhere, and Sirt5 according to the protocol of Schuetz et al.. […] The protein was bound to the HiTrapQ column in buffer A and eluted in a gradient to buffer A supplemented with 400 mM KCl. Fractions were analyzed by SDS-PAGE, and the Sirt1 fractions were pooled and transferred into buffer A using a NAP column (GE Healthcare).
as §1, §2, §3

Another experiment concerns the target T3, Sirt5 (Homo sapiens, UniProt Q9NXA8).
T3 construct: Sirt5 residues 34-302; His-tag with linker comprising a TEV protease cleavage site (N); made in house
T3 sequence (Q9NXA8 34-302): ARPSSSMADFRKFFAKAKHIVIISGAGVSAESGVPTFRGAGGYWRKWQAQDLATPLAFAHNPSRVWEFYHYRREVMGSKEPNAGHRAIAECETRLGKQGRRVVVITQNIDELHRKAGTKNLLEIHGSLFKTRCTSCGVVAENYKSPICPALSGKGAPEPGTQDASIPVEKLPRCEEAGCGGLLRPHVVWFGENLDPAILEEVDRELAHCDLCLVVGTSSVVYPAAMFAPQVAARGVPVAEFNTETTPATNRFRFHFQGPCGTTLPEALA
Nature of the experiment: Fluor-de-Lys peptide deacetylation assay, Sirt5. On the procedure: as §4, §1, §2, §3

The target in another experiment is T4, Sirt6 (Homo sapiens, UniProt Q8N6T7).
T4 construct: Sirt6 residues 13-308; His-tag with linker comprising a TEV protease cleavage site (N, cleaved yes); made in house; host or cells: E. coli Rosetta2
T4 sequence (Q8N6T7 13-308): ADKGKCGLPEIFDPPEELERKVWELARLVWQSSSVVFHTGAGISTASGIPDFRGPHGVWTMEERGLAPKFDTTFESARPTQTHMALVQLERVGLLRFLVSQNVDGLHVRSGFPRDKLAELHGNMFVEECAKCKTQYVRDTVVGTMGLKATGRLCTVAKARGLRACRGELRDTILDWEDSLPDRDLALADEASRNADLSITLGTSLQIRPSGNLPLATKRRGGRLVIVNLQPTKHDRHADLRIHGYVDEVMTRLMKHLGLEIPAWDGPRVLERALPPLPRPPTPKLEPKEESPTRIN
Nature of the experiment: Fluor-de-Lys peptide deacetylation assay, Sirt6. Here is the method: as §1, §2, §3

The mark [1] stands for this setting: 100 μM compound, 0.1 mM FdL-2 peptide, 0.5 mM NAD+.
The mark [2] stands for this setting: 100 μM compound, 0.1 mM FdL-1 peptide, 0.5 mM NAD+.

As to `O=C1C2C(c3ccccc3)NC(c3ccccc3)C1C(c1ccccc1)NC2c1ccccc1` (centres unmarked) [CSC29, 2,4,6,8-tetraphenyl-3,7-diazabicyclo[3.3.1]nonan-9-one], the “Effect on the activity of Sirt2” value on Sirt2 (setting [1]) was “--- (no such effect)”. Further, on Sirt3 (setting [1]), the “Effect on the activity of Sirt3” value is listed as “--- (no such effect)”. The “Effect on the activity of Sirt5” value on Sirt5 (setting [2]) is “--- (no such effect)”. In addition, the “Effect on the activity of Sirt6” value at Sirt6 (setting [2]) is “--- (no such effect)”.
Turning to `O=C1c2cc([N+](=O)[O-])ccc2-c2ccc3c4ccc5c6c(ccc(c7ccc1c2c73)c64)C(=O)c1cc([N+](=O)[O-])ccc1-5` [CSC14, 3,12bis(hydroxy(oxido)amino)anthra[9,1,2-cde]benzo[rst]pentaphene-5,10-dione, (Amanthrene Supra Black BBN)], the “Effect on the activity of Sirt2” value at Sirt2 was “inhibition (key: inhibition: significant inhibitory effects (>25% loss of activity); ---: no such effect)”. Besides, the “Effect on the activity of Sirt3” value at Sirt3 was “--- (key: inhibition: significant inhibitory effects (>25% loss of activity); ---: no such effect)”. At Sirt5, the “Effect on the activity of Sirt5” value is reported as “inhibition (key: inhibition: significant inhibitory effects (>25% loss of activity); ---: no such effect)”. The “Effect on the activity of Sirt6” value at Sirt6 is “--- (key: inhibition: significant inhibitory effects (>25% loss of activity); ---: no such effect)”.
As for `O=C1c2ccccc2C(=O)c2c1ccc(N1C(=O)c3ccccc3C1=O)c2-c1c(N2C(=O)c3ccccc3C2=O)ccc2c1C(=O)c1ccccc1C2=O` [CSC27], the “Effect on the activity of Sirt2” value on Sirt2 (setting [1]) is “inhibition (significant inhibitory effects (>25% loss of activity))”. In addition, the “Effect on the activity of Sirt3” value on Sirt3 (setting [1]) was “--- (no such effect)”. Also, the “Effect on the activity of Sirt5” value on Sirt5 (setting [2]) is “--- (no such effect)”. In addition, the “Effect on the activity of Sirt6” value on Sirt6 (setting [2]) is given as “inhibition (significant inhibitory effects (>25% loss of activity))”.
Turning to `O=S(=O)(c1cccc(C(F)(F)F)c1)N1c2ccccc2-n2cccc2C1c1cccnc1` (centres unmarked) [CSC38, 4-(3-pyridinyl)-5-((3-(trifluoromethyl)phenyl)sulfonyl)-4,5-dihydropyrrolo[1,2-a]quinoxaline], the “Effect on the activity of Sirt2” value on Sirt2 (setting [1]) is listed as “inhibition (significant inhibitory effects (>25% loss of activity))”. Moreover, the “Effect on the activity of Sirt3” value at Sirt3 (setting [1]) is on record as “--- (no such effect)”. The “Effect on the activity of Sirt5” value at Sirt5 (setting [2]) is recorded as “activation”. Further, the “Effect on the activity of Sirt6” value on Sirt6 (setting [2]) is on record as “activation”.
Turning to `O=C1C=C(Nc2nc(O)cc(C(=O)O)n2)c2ccccc2C1=O` [CSC30, 2-((3,4-dioxo-3,4-dihydro-1-naphthalenyl)amino)-6-hydroxy-4-pyrimidinecarboxylic acid], the “Effect on the activity of Sirt2” value on Sirt2 (setting [1]) is “--- (no such effect)”. Moreover, the “Effect on the activity of Sirt3” value at Sirt3 (setting [1]) is “--- (no such effect)”. For the same molecule, at Sirt5 (setting [2]), the “Effect on the activity of Sirt5” value was “--- (no such effect)”. For the same molecule, the “Effect on the activity of Sirt6” value at Sirt6 (setting [2]) is “--- (no such effect)”.
In the case of `O=C1C2C3c4ccccc4C(C2C(=O)N1c1ccc(OCc2ccccc2)cc1)[n+]1ccccc13` (centres unmarked) [CSC34], at Sirt2 (setting [1]), the “Effect on the activity of Sirt2” value is given as “inhibition (significant inhibitory effects (>25% loss of activity))”. Moreover, the “Effect on the activity of Sirt3” value on Sirt3 (setting [1]) was “--- (no such effect)”. The “Effect on the activity of Sirt5” value at Sirt5 (setting [2]) is “--- (no such effect)”. Besides, the “Effect on the activity of Sirt6” value at Sirt6 (setting [2]) is listed as “activation”.
For the molecule `O=C1c2ccccc2C(=O)c2c(NC(=O)c3ccc4c5c(ncnc35)-c3ccccc3C4=O)cccc21` [CSC36, N-(9,10-dioxo-9,10-dihydro-1-anthracenyl)-7-oxo-7H-benzo[e]perimidine-4-carboxamide, (Pigment Yellow 108)], the “Effect on the activity of Sirt2” value on Sirt2 (setting [1]) is “--- (no such effect)”. Moreover, the “Effect on the activity of Sirt3” value at Sirt3 (setting [1]) is reported as “--- (no such effect)”. The “Effect on the activity of Sirt5” value on Sirt5 (setting [2]) is “--- (no such effect)”. Besides, on Sirt6 (setting [2]), the “Effect on the activity of Sirt6” value is given as “--- (no such effect)”.
As for `O=C1c2ccccc2C(=O)N1c1ccc(Cc2ccc(N3C(=O)c4ccccc4C3=O)cc2)cc1` [CSC20, 2-(4-(4-(1,3-dioxo-1,3-dihydro-2H-isoindol-2-yl)benzyl)phenyl)-1H-isoindole-1,3(2H)-dione], at Sirt2 (setting [1]), the “Effect on the activity of Sirt2” value is recorded as “--- (no such effect)”. Also, the “Effect on the activity of Sirt3” value on Sirt3 (setting [1]) is reported as “--- (no such effect)”. For the same molecule, the “Effect on the activity of Sirt5” value on Sirt5 (setting [2]) is listed as “--- (no such effect)”. The “Effect on the activity of Sirt6” value at Sirt6 (setting [2]) is given as “--- (no such effect)”.
`O=S(=O)(c1ccc2ccccc2c1)N1CCN(S(=O)(=O)c2ccc3ccccc3c2)CC1` [CSC12, 1,4-bis(2-naphthylsulfonyl)piperazine]: on Sirt2 (setting [1]), the “Effect on the activity of Sirt2” value was “--- (no such effect)”. Besides, the “Effect on the activity of Sirt3” value at Sirt3 (setting [1]) was “--- (no such effect)”. Further, on Sirt5 (setting [2]), the “Effect on the activity of Sirt5” value is listed as “--- (no such effect)”. Further, the “Effect on the activity of Sirt6” value at Sirt6 (setting [2]) is listed as “--- (no such effect)”.
As for `COc1ccc2c(c1)Cc1cc(/N=[N+](\[O-])c3ccc4c(c3)Cc3cc(OC)ccc3-4)ccc1-2` [CSC32, 1-hydroxy-1,2-bis(7-methoxy-9H-fluoren-2-yl)-1^5-diazene], the “Effect on the activity of Sirt2” value at Sirt2 (setting [1]) is given as “inhibition (significant inhibitory effects (>25% loss of activity))”. Moreover, the “Effect on the activity of Sirt3” value at Sirt3 (setting [1]) is given as “--- (no such effect)”. Besides, the “Effect on the activity of Sirt5” value on Sirt5 (setting [2]) was “--- (no such effect)”. Further, the “Effect on the activity of Sirt6” value on Sirt6 (setting [2]) was “--- (no such effect)”.
`Cc1nc2ccccc2nc1-c1ccc(/N=[N+](\[O-])c2ccc(-c3nc4ccccc4nc3C)cc2)cc1` [CSC15, 2-(4-(1-hydroxy-2-(4-(3-methyl-2-quinoxalinyl)phenyl)-1^5-diazenyl)phenyl)-3-methylquinoxaline]: the “Effect on the activity of Sirt2” value at Sirt2 (setting [1]) is “--- (no such effect)”. Further, at Sirt3 (setting [1]), the “Effect on the activity of Sirt3” value is recorded as “--- (no such effect)”. For the same molecule, the “Effect on the activity of Sirt5” value at Sirt5 (setting [2]) was “--- (no such effect)”. Besides, the “Effect on the activity of Sirt6” value at Sirt6 (setting [2]) is reported as “--- (no such effect)”.
